The values below come from ChEMBL document CHEMBL5550190 (J Med Chem, 2024).

Structures are written as SMILES.

As usually defined, the GI50 is the concentration giving 50% growth inhibition. One may read the half-life as the time needed for the level to fall by half in the phase considered. Usually IC50 stands for the concentration that gives 50% inhibition. Lower therefore signals inhibition by little substance.

Data set [1] in a line: Drug metabolism in mouse liver microsomes assessed as M2 metabolite formation at 10 uM after 30 mins in presence of NADPH by LC-MS/MS analysis. Type of data set: ADME, Microsome. Particulars: 0.5 h.
Data set [2] deals with MDA-MB-231. Nature of the data set: Antitumor activity against human MDA-MB-231 cells incubated for 48 hrs in presence of 1.5% BSA by Celltiter Blue reagent based 2D microtiter assay. Type of data set: functional.
Data set [3] can be described thus: Metabolic stability in human liver microsomes assessed as half life at 100 uM measured upto 60 mins by LC-MS/MS analysis. Type of data set: ADME, Microsome. The note with it: 1 h. In general terms: Liver microsomes are a subcellular fraction often used to study metabolism.
For data set [4], the system named is MDA-MB-231. Nature of the data set: Antitumor activity against human MDA-MB-231 cells incubated for 48 hrs by Celltiter Blue reagent based 3D microtiter assay. Type of data set: functional. A general note: Resazurin is reduced to fluorescent resorufin, in cell work by metabolically active cells.
A short description of data set [5]: Protein binding in mouse plasma at 5 uM incubated for 5 hrs by LC-MS/MS analysis. Type of data set: ADME, cell-free. The note with it: read-out: PPB.
Data set [6] has as its system HCT-116. Nature of the data set: Antitumor activity against human HCT-116 cells incubated for 48 hrs. Type of data set: functional.
Data set [7] has as its system MDA-MB-231. Nature of the data set: Antitumor activity against human MDA-MB-231 cells incubated for 48 hrs by Celltiter Blue reagent based 2D microtiter assay. Type of data set: functional.
Data set [8] in a line: Metabolic stability in mouse liver microsomes assessed as half life at 100 uM measured upto 60 mins by LC-MS/MS analysis. Type of data set: ADME, Microsome. Particulars: 1 h.
Data set [9] can be described thus: Drug metabolism in mouse liver microsomes assessed as M3 metabolite formation at 10 uM after 30 mins in presence of NADPH by LC-MS/MS analysis. Type of data set: ADME, Microsome. Particulars: 0.5 h.
The target in data set [10] is CYP2C19 (Homo sapiens, UniProt P33261). Nature of the data set: Drug metabolism in human liver microsomes assessed as CYP2C19-mediated metabolism by measuring increase in half life in presence of (+)-N-3-benzylnirvanol (reference value: 10.8 mins). Type of data set: ADME, Microsome. The note with it: with (+)-N-3-benzylnirvanol.
Chain of CYP2C19 (P33261 whole entry): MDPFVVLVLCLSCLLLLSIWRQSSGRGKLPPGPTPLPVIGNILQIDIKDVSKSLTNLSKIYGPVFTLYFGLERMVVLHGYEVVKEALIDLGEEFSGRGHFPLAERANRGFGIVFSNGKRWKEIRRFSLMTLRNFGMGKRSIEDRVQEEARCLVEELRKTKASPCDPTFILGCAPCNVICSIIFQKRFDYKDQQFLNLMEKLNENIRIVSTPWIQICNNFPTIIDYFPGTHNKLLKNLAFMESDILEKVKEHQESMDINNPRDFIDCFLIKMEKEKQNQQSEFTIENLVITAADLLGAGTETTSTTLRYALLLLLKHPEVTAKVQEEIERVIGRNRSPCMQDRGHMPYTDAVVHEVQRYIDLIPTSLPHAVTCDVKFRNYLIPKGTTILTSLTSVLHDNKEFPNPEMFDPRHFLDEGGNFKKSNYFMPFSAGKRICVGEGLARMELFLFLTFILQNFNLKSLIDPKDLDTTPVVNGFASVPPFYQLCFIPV
Data set [11] in a line: Drug metabolism in mouse liver microsomes assessed as M1 metabolite formation at 10 uM after 30 mins in presence of NADPH by LC-MS/MS analysis. Particulars: 0.5 h. Type of data set: ADME, Microsome.
Data set [12] has as its system MDA-MB-231. Nature of the data set: Antitumor activity against human MDA-MB-231 cells incubated for 48 hrs in presence of 1.5% BSA by Celltiter Blue reagent based 3D microtiter assay. Type of data set: functional.
A short description of data set [13]: Metabolic stability in mouse liver microsomes assessed as half life at 100 uM preincubated for 5 mins followed by NADPH addition and measured upto 60 mins by LC-MS/MS analysis. Type of data set: ADME, Microsome. The note with it: time < 65 min.
Data set [14] has as its target T1, CYP1A2 (Homo sapiens, UniProt P05177).
T1 sequence (P05177 whole entry): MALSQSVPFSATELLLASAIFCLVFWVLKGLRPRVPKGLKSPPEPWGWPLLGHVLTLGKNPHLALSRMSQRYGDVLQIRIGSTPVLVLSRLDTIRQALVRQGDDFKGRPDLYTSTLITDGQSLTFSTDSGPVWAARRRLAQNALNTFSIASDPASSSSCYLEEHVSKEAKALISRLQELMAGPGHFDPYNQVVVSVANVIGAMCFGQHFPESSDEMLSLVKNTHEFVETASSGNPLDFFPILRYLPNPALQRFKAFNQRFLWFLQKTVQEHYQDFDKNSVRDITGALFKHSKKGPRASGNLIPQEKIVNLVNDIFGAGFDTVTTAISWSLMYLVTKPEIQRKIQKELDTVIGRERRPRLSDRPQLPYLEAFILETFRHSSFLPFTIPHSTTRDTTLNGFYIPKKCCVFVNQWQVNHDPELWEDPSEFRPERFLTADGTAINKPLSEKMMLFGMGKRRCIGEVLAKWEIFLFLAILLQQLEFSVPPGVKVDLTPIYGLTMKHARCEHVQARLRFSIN
Nature of the data set: Drug metabolism in human liver microsomes assessed as CYP1A2-mediated metabolism by measuring increase in half life in presence of furafylline (reference value: 10.8 mins). Type of data set: ADME, Microsome. Particulars: with furafylline.

Data set [15] has as its target CYP3A4 (Homo sapiens, UniProt P08684). Nature of the data set: Drug metabolism in human liver microsomes assessed as CYP3A4-mediated metabolism by measuring increase in half life in presence of ketoconazole (reference value: 10.8 mins). The note with it: with ketoconazole. Type of data set: ADME, Microsome.
Data set [16] is described as follows: Metabolic stability in human liver microsomes assessed as half life at 100 uM preincubated for 5 mins followed by NADPH addition and measured upto 60 mins by LC-MS/MS analysis. Type of data set: ADME, Microsome. The note with it: time < 65 min.
A short description of data set [17]: Protein binding in human plasma at 5 uM incubated for 5 hrs by LC-MS/MS analysis. Type of data set: ADME, cell-free. The note with it: read-out: PPB.
For data set [18], the target named is CYP2D6 (Homo sapiens, UniProt P10635). Nature of the data set: Drug metabolism in human liver microsomes assessed as CYP2D6-mediated metabolism by measuring increase in half life in presence of quinidine (reference value: 10.8 mins). Type of data set: ADME, Microsome. Particulars: with quinidine.
Chain of CYP2D6 (P10635 whole entry): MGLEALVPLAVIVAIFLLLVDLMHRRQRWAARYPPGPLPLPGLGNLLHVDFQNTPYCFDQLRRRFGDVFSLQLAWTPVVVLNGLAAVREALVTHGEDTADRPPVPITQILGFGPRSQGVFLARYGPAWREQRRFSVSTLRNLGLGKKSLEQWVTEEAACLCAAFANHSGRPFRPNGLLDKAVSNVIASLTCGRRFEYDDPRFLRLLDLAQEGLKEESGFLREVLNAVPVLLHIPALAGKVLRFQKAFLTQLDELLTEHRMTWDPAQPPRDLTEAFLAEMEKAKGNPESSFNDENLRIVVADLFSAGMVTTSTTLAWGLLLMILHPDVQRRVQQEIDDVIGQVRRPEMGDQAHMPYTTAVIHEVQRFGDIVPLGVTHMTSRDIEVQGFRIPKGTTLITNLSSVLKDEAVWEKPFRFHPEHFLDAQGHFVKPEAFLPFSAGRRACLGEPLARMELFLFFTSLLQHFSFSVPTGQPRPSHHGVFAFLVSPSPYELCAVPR
Data set [19] relates to A549. Nature of the data set: Antitumor activity against human A549 cells incubated for 48 hrs. Type of data set: functional.
Data set [20] concerns Hs-578T. Nature of the data set: Antitumor activity against human Hs-578T cells incubated for 48 hrs. Type of data set: functional.
Data set [21] has as its target CYP2C9 (Homo sapiens, UniProt P11712). Nature of the data set: Drug metabolism in human liver microsomes assessed as CYP2C9-mediated metabolism by measuring increase in half life in presence of sulfaphenazole (reference value: 10.8 mins). Type of data set: ADME, Microsome. The note with it: with sulfaphenazole.
Data set [22] in a line: Intrinsic clearance in human hepatocytes measured per million cells incubated for 120 mins by LC-MS/MS analysis. The note with it: read-out: CLH. Type of data set: ADME, cell-based, Hepatocyte.
The subject of data set [23] is BMDM. Nature of the data set: Growth inhibition of mouse BMDMs. Type of data set: functional, cell-based.
Data set [24] concerns the target Cannabinoid receptor 2 (Homo sapiens, UniProt P34972). Nature of the data set: Inhibition of CB2 (unknown origin). Type of data set: single protein.

Chain of CYP3A4 (P08684 whole entry): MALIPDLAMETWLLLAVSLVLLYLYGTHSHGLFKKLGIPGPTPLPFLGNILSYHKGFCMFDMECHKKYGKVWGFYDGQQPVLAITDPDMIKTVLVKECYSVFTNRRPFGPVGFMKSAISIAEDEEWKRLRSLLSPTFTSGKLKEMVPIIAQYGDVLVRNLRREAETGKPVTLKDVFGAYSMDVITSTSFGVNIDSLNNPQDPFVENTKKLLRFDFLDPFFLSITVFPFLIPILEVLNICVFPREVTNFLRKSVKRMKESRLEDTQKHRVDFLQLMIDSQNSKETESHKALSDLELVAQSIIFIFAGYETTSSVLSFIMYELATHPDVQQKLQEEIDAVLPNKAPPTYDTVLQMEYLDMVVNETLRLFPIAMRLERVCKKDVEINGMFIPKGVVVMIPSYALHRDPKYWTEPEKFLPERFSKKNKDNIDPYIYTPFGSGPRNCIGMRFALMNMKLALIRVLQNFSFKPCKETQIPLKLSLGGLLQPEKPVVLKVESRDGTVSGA
Chain of Cannabinoid receptor 2 (P34972 whole entry): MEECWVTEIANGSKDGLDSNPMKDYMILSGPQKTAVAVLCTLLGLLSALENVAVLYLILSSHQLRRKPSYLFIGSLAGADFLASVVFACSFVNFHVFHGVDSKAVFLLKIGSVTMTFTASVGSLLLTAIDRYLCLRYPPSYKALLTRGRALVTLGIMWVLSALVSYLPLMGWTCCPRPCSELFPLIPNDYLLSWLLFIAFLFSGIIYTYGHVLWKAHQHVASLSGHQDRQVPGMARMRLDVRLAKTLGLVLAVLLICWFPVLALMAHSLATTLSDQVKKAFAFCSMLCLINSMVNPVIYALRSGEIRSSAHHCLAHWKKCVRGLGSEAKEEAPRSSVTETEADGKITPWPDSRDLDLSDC
Chain of CYP2C9 (P11712 whole entry): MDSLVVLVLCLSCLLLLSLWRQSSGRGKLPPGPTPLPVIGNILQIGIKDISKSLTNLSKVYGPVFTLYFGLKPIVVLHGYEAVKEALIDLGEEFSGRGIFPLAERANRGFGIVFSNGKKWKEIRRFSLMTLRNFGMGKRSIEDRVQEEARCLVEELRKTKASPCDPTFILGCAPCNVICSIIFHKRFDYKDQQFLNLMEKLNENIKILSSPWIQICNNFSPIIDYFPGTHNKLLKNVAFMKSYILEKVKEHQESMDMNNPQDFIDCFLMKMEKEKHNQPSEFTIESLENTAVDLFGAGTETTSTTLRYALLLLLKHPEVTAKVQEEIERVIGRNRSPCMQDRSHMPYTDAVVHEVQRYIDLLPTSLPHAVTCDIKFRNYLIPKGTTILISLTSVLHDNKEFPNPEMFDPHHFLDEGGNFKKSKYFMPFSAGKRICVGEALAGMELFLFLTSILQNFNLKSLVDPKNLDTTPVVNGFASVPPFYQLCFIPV

`CCN(CC)C(=O)C[C@H]1C(=O)Nc2cc(NC(=O)c3cc(OC)c(OC)c(OC)c3Br)c(Oc3cc(C)cc(C)c3)cc2C(=O)N1C`: the Drug metabolism result in data set [1], in data set [9] and in data set [11] was “Metabolite_Detected” throughout. Moreover, the GI50 in [2] is 3.39 nM; in [4], 109 nM; in data set [6], below 5 nM; in data set [7] it was below 1 nM; in data set [12], 53.2 nM; in data set [19] it was below 5 nM. The same compound had a GI50 in data set [20] of 5.4 nM. Also, the Stability entry in data set [3] and in [8] was “Stable” in each case. Further, the fraction unbound at 5 h, 5 µM in data set [5] and in [17] was below 0.02 throughout. Further, the half-life in data set [10] was 11.7 min; in data set [14], 11.4 min; in data set [15] it was 866 min; in data set [18], 11.6 min; in [21], 16.6 min. The results for the half-life at 100 µM in data set [13] and in data set [16] were 13.8 min and 11 min, respectively.

On to `[2H]C([2H])([2H])Oc1cc(C(=O)Nc2cc3c(cc2Oc2cc(C)cc(C)c2)C(=O)N[C@@H](CC(=O)N(OC([2H])([2H])[2H])C([2H])([2H])[2H])C(=O)N3)c(Br)c(OC([2H])([2H])[2H])c1OC([2H])([2H])[2H]`, for which the hepatocyte CLint in data set [22] was found to be 8.5 µL/min/1e6 cells. Also, the GI50 in [2] is below 1 nM; in data set [4], 2.12 nM; in [6], below 5 nM; in [7], below 1 nM; in data set [12] it was 9.47 nM; in data set [19], below 5 nM. This compound also yielded a GI50 in data set [20] below 5 nM. In addition, the IC50 worked out at 1420 nM in data set [23] and 4.7 µM in [24].
